This is an account of results in patent publication US10617695B2, “Ophthalmic compositions containing alcaftadine” (Vistakon Pharmaceuticals, LLC, priority 2006, dated 2020).

In series [1] the test system is SWR/J mice sensitized with short ragweed allergen. The series can be described thus: Topical alcaftadine in murine model of active anaphylaxis (allergic conjunctivitis, short ragweed challenge). The format is in vivo, mouse. The settings on record: alcaftadine 0.0625% ophthalmic solution, 15 minutes after allergen challenge. As to the method:
Male SWR/J mice (The Jackson Laboratory, Bar Harbor, Me.), aged 5-7 weeks and weighing between 12.55 and 17.73 grams, were sensitized with a 100 μl dose of a suspension of 50 μg short ragweed allergen (Greer Labs, Inc., Lenoir, N.C.) and 1 mg of aluminum hydroxide (Fisher Scientific, Pittsburgh, Pa.) by intraperitoneal injection at two weeks and prior to treatment and challenge. […] The mice were then dosed topically in the eye with an alcaftadine 0.0625% ophthalmic solution, positive control (ophthalmic solution comprising combination of ketotifen 0.05% and pheniramine 0.5%), or placebo prior to an ocular challenge with 1.5 mg short ragweed allergen in phosphate buffered saline. Fifteen (15) minutes after allergen challenge, mice were evaluated for clinical signs of allergic conjunctivitis by scoring for conjunctival redness, chemosis, tearing, and lid edema. Severity of clinical signs was scored by a trained technician using a standardized 0-2 scale.

A short description of series [2]: Chemical stability of alcaftadine solution in ethylene oxide sterilized LDPE bottles. The format is physicochemical. On the procedure: Both non-sterilized Rexam and Bunder Glas bottles were sterilized using ethylene oxide. Stability studies were initiated and ethylene oxide levels determined to be <1 ppm (under ambient conditions) using a water extraction test method (ANSI/AAMI/ISO: 10993-7) by AppTec (Marietta, Ga.).
The 2.5 mg/ml alcaftadine solution was used in this study.
The chemical stability results for alcaftadine stored in ethylene oxide sterilized Rexam and Bunder Glas bottles are summarized in Table 4.

In series [3] the test system is ZO-1. Briefly: Integrity of conjunctival epithelium after conjunctival allergen challenge: ZO-1 expression (confocal microscopy). The format is in vivo, mice. On the procedure:
To investigate the ability of alcaftadine to maintain the integrity of conjunctival epithelium, changes in the expression of the tight junction proteins ZO-1 and E-cadherin (an induction for E-cadherin and qualitative change-from focal to diffuse for ZO-1) were evaluated following specific conjunctival allergen challenge. These changes are associated with an increased permeability of the conjunctival and other epithelial tissues. This in vivo experiment examined what effect alcaftadine (topical administration 1 and 2 hours pre-challenge) had on the modulation of these proteins.
Mice were sensitized with short ragweed (SRW) in aluminum hydroxide via intraperitoneal administration (Day 0, 7, and 15) and eye drop instillation (Day 8 and 15). On Day 20, mice were further sensitized with eye drops containing only SRW. On Day 27, the mice were treated topically with either 5 μL alcaftadine or vehicle at 1 and 2 hours prior to challenge. SRW was instilled topically to both eyes. The expression of these proteins in naive eyes were also monitored. Changes in the expression of the tight junction proteins ZO-1 and E-cadherin were observed 1-hour post conjunctival allergen challenge with SRW. The proteins were detected using FITC-conjugated monoclonal antibodies specific for ZO-1 and E-cadherin and were visualized by confocal microscopy (Ziess). […]

Series [4] has as its system murine model of allergic conjunctivitis. The series can be described thus: Vascular leak (Evans Blue Dye Extravasation) in murine model of allergic conjunctivitis, early phase. The format is in vivo, mice. The settings on record: alcaftadine 2.5 mg/ml, 5 μL topical at 1 and 2 hours pre-challenge; p<0.05. On the procedure: Alcaftadine ophthalmic solution was evaluated to determine if topical treatment could reduce early phase and late phase allergic inflammation in a murine model of allergic conjunctivitis. Evans Blue Dye Leakage was used to assess the impact on vascular permeability during the early phase inflammatory response Conjunctiva was taken at 24 hours, stained, and assessed for presence of neutrophil and eosinophil infiltration to evaluate late phase anti-inflammatory activity.
All mice were sensitized with short ragweed (SRW) in aluminum hydroxide via intraperitoneal administration (Day 0, 7, and 14) and eye drop instillation (Day 8 and 15). On Day 20, mice were again sensitized with eye drops of SRW.
On Day 27, two topical administrations of the clinical dose of alcaftadine 2.5 mg/ml or vehicle were instilled at 1 and 2 hours pre-challenge. Alcaftadine and vehicle were administered topically at a 5 μL saturating dose as treatment arms based on a randomization code. […]
Vascular leak was determined by means of Evans Blue Dye Extravasation following allergen challenge for N=6 animals except the alcaftadine treatment arm, where N=4 animals were sacrificed and tested (two animals died during the procedure). […] The numbers of eosinophils and neutrophils were determined both by light microscopy of Giemsa or H&E stained sections or by immunohistochemistry using cell specific monoclonal antibodies. […]

Series [5] is described as follows: Systemic (plasma) levels of alcaftadine in patients. The settings on record: for Mean Cmax: plasma, 0.25% ophthalmic solution bilaterally. The format is in vivo, human. As to the method:
Patients were bilaterally dosed with 0.25% ophthalmic solutions of alcaftadine for seven days. The plasma levels of those patients was assessed pre-dose, and 0.25, 0.5, 1, 1.5, 2, 3, 4, 6, 8, 12, and 18 hour post medication instillation on days one and seven. Plasma concentrations of Alcaftadine reached Cmax rapidly and declined to below the lower limit of quantification (0.01 ng/mL) by 3 hours post dosing.

The mark [6] stands for this setting: Bunder Glas bottles, Ethylene Oxide, 5 days at 50° C.
The mark [7] stands for this setting: Bunder Glas bottles, Ethylene Oxide, 14 days at 50° C.
Where [8] appears, read: Rexam bottles, Ethylene Oxide, 5 days at 50° C.
Where [9] appears, read: Rexam bottles, Ethylene Oxide, 14 days at 50° C.

Entries after “also recorded” stand apart in the source; their conditions may differ.

With `CN1CCC(=C2c3ccccc3CCn3c(C=O)cnc32)CC1` [Alcaftadine, 6,11-dihydro-11-(1-methyl-4-piperidinylidene)-5H-imidazo[2,1-b][3]benzazepine-3-carboxaldehyde], in series [1], the preventing tearing result is “as effective as the positive control and more effective than placebo”. In addition, in series [1] (positive control ketotifen 0.05% and pheniramine 0.5%), the “preventing itching, redness, chemosis and lid edema” value was “more effective than the positive control”. The “N-oxide levels in ethylene oxide sterilized Bunder Glas bottles versus gamma irradiated bottles” value in series [2] (14 days of storage at 50° C. under ambient light conditions) is recorded as “significantly lower N-oxide levels”. Moreover, the Alcaftadine was 2.46 mg/mL in series [2] (setting [6]); 2.48 mg/mL in series [2] (setting [7]); 2.48 mg/mL in series [2] (Glass Vials, 5 days at 50° C.); 2.51 mg/mL in series [2] (Glass Vials, 14 days at 50° C.); 2.50 mg/mL in series [2] (setting [8]); 2.58 mg/mL in series [2] (setting [9]). For the same compound, the N-Oxide in series [2] (setting [6]) worked out at 0.052%; in series [2] (setting [7]), 0.074%; in series [2] (Glass Vials, 5 days at 50° C.), 0.022%; in series [2] (Glass Vials, 14 days at 50° C.) it was 0.028%; in series [2] (setting [8]), 0.018%; in series [2] (setting [9]), 0.025%. Besides, in series [3] (5 μL topical at 1 and 2 hours prior to challenge, 1-hour post challenge), the “ZO-1 staining, alcaftadine treatment versus naive (negative control)” value is recorded as “no or minimal difference”. For the same compound, in series [3] (following specific conjunctival allergen challenge), the “integrity of conjunctival epithelial tight junctions (focal ZO-1 expression)” value is recorded as “maintains the integrity of conjunctival epithelial tight junctions”. In addition, the “vascular leak compared to vehicle” value in series [4] was “successfully preventing vascular leakage; also recorded: did significantly inhibit vascular leak”. In addition, the maximum plasma concentrations result in series [5] (all subjects) is “less than 0.12 ng/mL”. Moreover, the results for the “Mean Cmax” value in series [5] (Day 1) and in series [5] (Day 7) were 0.051 ng/mL and 0.060 ng/mL, respectively. Moreover, the “time by which plasma concentrations declined to below the lower limit of quantification” value in series [5] (post dosing, lower limit of quantification 0.01 ng/mL) is no more than 3 h.
